Patent US20260191969A1, “COMPOSITION CONTAINING ANIONIC LONG-CHAIN LIPID TO BE USED FOR ATTENUATING SKIN BARRIER FUNCTION, AND DISPERSION CONTAINING COMPLEX COMPRISING CATIONIC LONG-CHAIN LIPID, ANIONIC LONG-CHAIN LIPID AND DRUG DISPERSED THEREIN” (KYUSHU UNIVERSITY, NATIONAL UNIVERSITY CORPORATION, priority 2022, published 2026)
Strand notation (5' to 3'): a small letter for the sugar, then the base; units joined by * are phosphorothioate-linked, units joined directly phosphodiester-linked; [ ] holds rarer units or linkages, { } end groups; capitals alone tell only the bases. l = locked nucleic acid (LNA); [5mC] = 5-methylcytosine; d = 2'-deoxy (DNA)

System: SNORA23
Assay: knock-down of target RNA after transdermal or subcutaneous administration to tumor-bearing mice (RT-PCR)
Format: in vivo
Details: for expression level of the target RNA (SNORA23): 250 μg ASO in 50 μL, two days after, skin, subcutaneous tumor, liver, FIG. 34
Description: A formulation targeting SNORA23 was prepared. To mice, 3×10^6 ES2 ovarian carcinoma cells were subcutaneously transplanted, and the formation of subcutaneous tumor was checked 1 week after that. To the top (1 cm×1 cm) of a tumor or into the periphery of a tumor, 50 μL of hybrid particles containing 250 μg of ASO targeting SNORA23 was applied or subcutaneously injected. For the transdermal administration group, protective tape was wound once around the trunk including the administration site.
Two days after the administration, the skin, subcutaneous tumor, and liver were isolated, and total RNA was extracted. The level of targeted RNA (SNORA23) was quantified, and the presence or absence of reduction in the expression level was examined by an RT-PCR method.

Substance: 5′-GAAacctatgmCAmCa-3′ (lG*lA*lA*dA*dC*dC*dT*dA*dT*dG*l[5mC]*lA*l[5mC]*dA) [ASO]
- knock-down of target RNA in the liver (irrespective of the route of administration, suggests migration of ASO into blood): knock-down effect
- expression level of the target RNA (SNORA23) (subcutaneous administration): Reduction of the expression level of the target RNA was induced
- expression level of the target RNA (SNORA23) (transdermal administration): Reduction of the expression level of the target RNA was induced
